Key:
Assay type in all cases: biochemical
Settings in all cases: 20 nM
PDE4A1A = target: T1, PDE4A1A (Homo sapiens, UniProt P27815); experiment: PDE4 inhibitory activity assay (FAM-cAMP enzymatic reaction), PDE4A1A
T1 construct: purchased BPS 60040
Method in brief: (§1)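 Each isoform is incubated with test compound for 15 min at room temperature before FAM-cAMP substrate starts a 30-min reaction.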

PDE4D2 = PDE4D2 (Homo sapiens, UniProt Q08499); experiment: PDE4 inhibitory activity assay (FAM-cAMP enzymatic reaction), PDE4D2
Method in brief: as §1

PDE4B1 = target: T2, PDE4B1 (Homo sapiens, UniProt Q07343); experiment: PDE4 inhibitory activity assay (FAM-cAMP enzymatic reaction), PDE4B1
T2 construct: purchased BPS 60041
Method in brief: as §1

Chain of PDE4D2 (Q08499 303-809): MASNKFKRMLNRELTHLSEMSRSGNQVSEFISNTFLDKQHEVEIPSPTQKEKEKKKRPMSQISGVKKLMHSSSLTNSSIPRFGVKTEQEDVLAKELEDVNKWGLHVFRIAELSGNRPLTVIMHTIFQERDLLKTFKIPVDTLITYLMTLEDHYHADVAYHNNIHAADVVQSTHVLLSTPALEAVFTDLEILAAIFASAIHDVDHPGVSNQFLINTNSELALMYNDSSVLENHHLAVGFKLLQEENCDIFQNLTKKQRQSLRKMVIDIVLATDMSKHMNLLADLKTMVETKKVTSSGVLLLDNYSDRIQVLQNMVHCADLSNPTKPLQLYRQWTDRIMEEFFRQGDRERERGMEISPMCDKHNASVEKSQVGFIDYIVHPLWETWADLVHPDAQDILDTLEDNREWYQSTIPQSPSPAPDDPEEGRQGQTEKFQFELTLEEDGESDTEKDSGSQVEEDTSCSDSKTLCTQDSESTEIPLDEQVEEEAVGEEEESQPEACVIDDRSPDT
T1 sequence (P27815 1-647 isoform P27815-4): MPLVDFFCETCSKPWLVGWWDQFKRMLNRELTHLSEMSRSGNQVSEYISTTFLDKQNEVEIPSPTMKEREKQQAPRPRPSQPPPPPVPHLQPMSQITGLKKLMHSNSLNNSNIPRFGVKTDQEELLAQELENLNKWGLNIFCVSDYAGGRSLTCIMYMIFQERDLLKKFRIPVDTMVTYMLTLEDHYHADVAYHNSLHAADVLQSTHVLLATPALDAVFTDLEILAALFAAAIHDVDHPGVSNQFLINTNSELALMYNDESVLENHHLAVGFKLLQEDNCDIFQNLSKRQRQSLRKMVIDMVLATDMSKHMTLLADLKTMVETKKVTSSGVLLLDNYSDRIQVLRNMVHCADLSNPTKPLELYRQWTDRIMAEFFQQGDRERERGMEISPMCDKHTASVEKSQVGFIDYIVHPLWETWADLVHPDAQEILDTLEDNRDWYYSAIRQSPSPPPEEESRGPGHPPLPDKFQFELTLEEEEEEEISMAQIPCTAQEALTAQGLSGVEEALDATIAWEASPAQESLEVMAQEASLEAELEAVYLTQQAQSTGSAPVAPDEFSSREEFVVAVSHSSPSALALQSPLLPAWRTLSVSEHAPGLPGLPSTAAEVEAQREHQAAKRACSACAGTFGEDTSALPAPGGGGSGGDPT
T2 sequence (Q07343 whole entry): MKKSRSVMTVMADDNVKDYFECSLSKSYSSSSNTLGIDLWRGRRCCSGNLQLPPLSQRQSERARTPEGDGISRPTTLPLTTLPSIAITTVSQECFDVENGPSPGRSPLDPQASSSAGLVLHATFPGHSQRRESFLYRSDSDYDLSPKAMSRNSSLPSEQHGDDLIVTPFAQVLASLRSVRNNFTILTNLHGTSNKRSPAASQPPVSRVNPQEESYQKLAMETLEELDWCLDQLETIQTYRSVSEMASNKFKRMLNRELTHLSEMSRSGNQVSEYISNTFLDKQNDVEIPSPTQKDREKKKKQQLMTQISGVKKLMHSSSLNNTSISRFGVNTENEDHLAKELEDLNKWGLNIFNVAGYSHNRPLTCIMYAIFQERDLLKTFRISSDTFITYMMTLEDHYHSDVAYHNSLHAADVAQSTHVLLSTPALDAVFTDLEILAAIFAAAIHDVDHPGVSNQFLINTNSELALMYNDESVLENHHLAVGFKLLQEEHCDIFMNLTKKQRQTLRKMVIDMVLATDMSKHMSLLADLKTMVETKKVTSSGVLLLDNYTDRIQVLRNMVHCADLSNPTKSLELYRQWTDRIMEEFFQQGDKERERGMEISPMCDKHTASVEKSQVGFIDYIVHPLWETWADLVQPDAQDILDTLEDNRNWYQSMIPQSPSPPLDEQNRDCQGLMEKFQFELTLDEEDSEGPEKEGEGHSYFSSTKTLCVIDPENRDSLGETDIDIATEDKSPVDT

Compound	PDE4 A1 inhibitory effect at 20 nM (PDE4A1A)	PDE4 D2 inhibitory effect at 20 nM (PDE4D2)	PDE4 B1 inhibitory effect at 20 nM (PDE4B1)
CCOc1nc([C@@H](CS(C)(=O)=O)n2c(=O)n(C)c3cc(-c4ccccc4C(F)(F)F)cnc32)ccc1OC [Ex. 86, (S)-3-(1-(6-ethoxy-5-methoxypyridin-2-yl)-2-(methylsulfonyl)ethyl)-6-(2-(trifluoromethyl)phenyl)-1-methyl-1H-imidazo[4,5-b]pyridin-2(3H)-one]	+	+	+
CCOc1nc([C@@H](CS(C)(=O)=O)n2c(=O)[nH]c3cc(-c4ccccc4)ccc32)ccc1OC [Ex. 130, (S)-1-(1-(6-ethoxy-5-methoxypyridin-2-yl)-2-(methylsulfonyl)ethyl)-5-phenyl-1H-benzo[d]imidazol-2(3H)-one]	+	+	+
CCOc1nc([C@@H](CS(C)(=O)=O)n2c(=O)[nH]c3cc(-c4cccc(F)c4F)cnc32)ccc1OC [Ex. 90, (S)-6-(2,3-difluorophenyl)-3-(1-(6-ethoxy-5-methoxypyridin-2-yl)-2-(methylsulfonyl)ethyl)-1H-imidazo[4,5-b]pyridin-2(3H)-one]	+	+	+
CCOc1nc([C@@H](CS(C)(=O)=O)n2c(=O)n(C)c3cc(-c4cccc(F)c4C)cnc32)ccc1OC [Ex. 112, (S)-6-(3-fluoro-2-methylphenyl)-3-(1-(6-ethoxy-5-methoxypyridin-2-yl)-2-(methylsulfonyl)ethyl)-1-methyl-1H-imidazo[4,5-b]pyridin-2(3H)-one]	+	+	+
CCOc1nc([C@@H](CS(C)(=O)=O)n2c(=O)n(C)c3cc(-c4ccccn4)cnc32)ccc1OC [Ex. 123, (S)-3-(1-(6-ethoxy-5-methoxypyridin-2-yl)-2-(methylsulfonyl)ethyl)-1-methyl-6-(pyridin-2-yl)-1H-imidazo[4,5-b]pyridin-2(3H)-one]	+	+	+
CCOc1nc([C@@H](CS(C)(=O)=O)n2c(=O)n(C)c3cc(-c4ccccc4OC)cnc32)ccc1OC [Ex. 84, (S)-3-(1-(6-ethoxy-5-methoxypyridin-2-yl)-2-(methylsulfonyl)ethyl)-6-(2-methoxyphenyl)-1-methyl-1H-imidazo[4,5-b]pyridin-2(3H)-one]	+	+	+
CCOc1nc([C@H](CS(C)(=O)=O)n2c(=O)[nH]c3cc(-c4cc(F)ccc4F)cnc32)ccc1OC [Ex. 98, (R)-6-(2,5-difluorophenyl)-3-(1-(6-ethoxy-5-methoxypyridin-2-yl)-2-(methylsulfonyl)ethyl)-1H-imidazo[4,5-b]pyridin-2(3H)-one]	−	−	−
CCOc1nc([C@@H](CS(C)(=O)=O)n2c(=O)[nH]c3cc(-c4ccccc4CC)cnc32)ccc1OC [Ex. 81, (S)-3-(1-(6-ethoxy-5-methoxypyridin-2-yl)-2-(methylsulfonyl)ethyl)-6-(2-ethylphenyl)-1H-imidazo[4,5-b]pyridin-2(3H)-one]	+	+	+
CCOc1nc([C@@H](CS(C)(=O)=O)n2c(=O)n(CC(F)(F)F)c3c(C)c(-c4ccccc4F)cnc32)ccc1OC [Ex. 51, (S)-3-(1-(6-ethoxy-5-methoxypyridin-2-yl)-2-(methylsulfonyl)ethyl)-6-(2-fluorophenyl)-7-methyl-1-(2,2,2-trifluoroethyl)-1H-imidazo[4,5-b]pyridin-2(3H)-one]	+	+	+
CCOc1nc([C@@H](CS(C)(=O)=O)n2c(=O)n(C)c3cc(-c4ccc(F)cc4C)cnc32)ccc1OC [Ex. 108, (S)-6-(4-fluoro-2-methylphenyl)-3-(1-(6-ethoxy-5-methoxypyridin-2-yl)-2-(methylsulfonyl)ethyl)-1-methyl-1H-imidazo[4,5-b]pyridin-2(3H)-one]	+	+	+
CCOc1nc([C@@H](CS(C)(=O)=O)n2c(=O)[nH]c3c(C)c(-c4cccc(F)c4C)cnc32)ccc1OC [Ex. 37, (S)-6-(3-fluoro-2-methylphenyl)-3-(1-(6-ethoxy-5-methoxypyridin-2-yl)-2-(methylsulfonyl)ethyl)-7-methyl-1H-imidazo[4,5-b]pyridin-2(3H)-one]	+	+	+

Other lines, results leading:

PDE4 A1 inhibitory effect at 20 nM (PDE4A1A)	PDE4 D2 inhibitory effect at 20 nM (PDE4D2)	PDE4 B1 inhibitory effect at 20 nM (PDE4B1)	Compound
+	+	+	CCOc1nc([C@@H](CS(C)(=O)=O)n2c(=O)[nH]c3cc(-c4ccc(F)cc4)ccc32)ccc1OC [Ex. 135, (S)-1-(1-(6-ethoxy-5-methoxypyridin-2-yl)-2-(methylsulfonyl)ethyl)-5-(4-fluorophenyl)-1H-benzo[d]imidazol-2(3H)-one]
+	+	+	CCOc1nc([C@@H](CS(C)(=O)=O)N2C(=O)c3csc(N)c3C2=O)ccc1OC [Ex. 223, (S)-1-amino-5-(1-(6-ethoxy-5-methoxypyridin-2-yl)-2-(methylsulfonyl)ethyl)-4H-thieno[3,4-c]pyrrol-4,6 (5H)-dione]
+	+	+	CCOc1nc(C(CS(C)(=O)=O)N2C(=O)c3csc(NC(C)=O)c3C2=O)ccc1OC (stereo not drawn) [Ex. 224, N-(5-(1-(6-ethoxy-5-methoxypyridin-2-yl)-2-(methylsulfonyl)ethyl)-4,6-dioxo-5,6-dihydro-4H-thieno[3,4-c]pyrrol-1-yl)acetamide]
+	+	+	CCOc1ccccc1-c1ccc2c(c1)[nH]c(=O)n2[C@H](CS(C)(=O)=O)c1ccc(OC)c(OCC)n1 [Ex. 192, (S)-1-(1-(6-ethoxy-5-methoxypyridin-2-yl)-2-(methylsulfonyl)ethyl)-5-(2-ethoxyphenyl)-1H-benzo[d]imidazol-2(3H)-one]
+	+	+	CCOc1nc([C@H](CS(C)(=O)=O)n2c(=O)n(C)c3cc(-c4ccc(F)cc4)ccc32)ccc1OC [Ex. 138, (R)-1-(1-(6-ethoxy-5-methoxypyridin-2-yl)-2-(methylsulfonyl)ethyl)-3-methyl-5-(4-fluorophenyl)-1H-benzo[d]imidazol-2(3H)-one]
+	+	+	CCOc1nc([C@@H](CS(C)(=O)=O)n2c(=O)[nH]c3cc(-c4c(F)cccc4OC)ccc32)ccc1OC [Ex. 190, (S)-5-(6-fluoro-2-methoxyphenyl)-1-(1-(6-ethoxy-5-methoxypyridin-2-yl)-2-(methylsulfonyl)ethyl)-1H-benzo[d]imidazol-2(3H)-one]
+	+	+	CCOc1nc([C@@H](CS(C)(=O)=O)n2c(=O)n(C)c3cc(-c4cccc(C)c4C)ccc32)ccc1OC [Ex. 167, (S)-5-(2,3-dimethylphenyl)-1-(1-(6-ethoxy-5-methoxypyridin-2-yl)-2-(methylsulfonyl)ethyl)-3-methyl-1H-benzo[d]imidazol-2(3H)-one]
+	+	+	CCOc1nc([C@@H](CS(C)(=O)=O)n2c(=O)[nH]c3cc(-c4cccc(C)c4F)ccc32)ccc1OC [Ex. 177, (S)-5-(2-fluoro-3-methylphenyl)-1-(1-(6-ethoxy-5-methoxypyridin-2-yl)-2-(methylsulfonyl)ethyl)-1H-benzo[d]imidazol-2(3H)-one]
+	+	+	CCOc1nc([C@@H](CS(C)(=O)=O)n2c(=O)n(C)c3cc(-c4cccc(C)c4F)ccc32)ccc1OC [Ex. 178, (S)-5-(2-fluoro-3-methylphenyl)-1-(1-(6-ethoxy-5-methoxypyridin-2-yl)-2-(methylsulfonyl)ethyl)-3-methyl-1H-benzo[d]imidazol-2(3H)-one]
+	+	+	CCOc1nc([C@@H](CS(C)(=O)=O)n2c(=O)n(CC)c3cc(-c4ccccn4)ccc32)ccc1OC [Ex. 197, (S)-1-(1-(6-ethoxy-5-methoxypyridin-2-yl)-2-(methylsulfonyl)ethyl)-3-ethyl-5-(pyridin-2-yl)-1H-benzo[d]imidazol-2(3H)-one]
+	+	+	CCOc1nc([C@@H](CS(C)(=O)=O)n2c(=O)[nH]c3cc(-c4c(C)cccc4C)ccc32)ccc1OC [Ex. 168, (S)-5-(2,6-dimethylphenyl)-1-(1-(6-ethoxy-5-methoxypyridin-2-yl)-2-(methylsulfonyl)ethyl)-1H-benzo[d]imidazol-2(3H)-one]
+	+	+	CCOc1nc([C@@H](CS(C)(=O)=O)n2c(=O)n(C)c3cc(-c4cccc(F)c4C)ccc32)ccc1OC [Ex. 174, (S)-5-(3-fluoro-2-methylphenyl)-1-(1-(6-ethoxy-5-methoxypyridin-2-yl)-2-(methylsulfonyl)ethyl)-3-methyl-1H-benzo[d]imidazol-2(3H)-one]
